Experimental data from ChEMBL document CHEMBL2016525, “Discovery of a novel acetylcholinesterase inhibitor by structure-based virtual screening techniques” (Bioorg Med Chem Lett, 2012).

How the values were obtained:
[1] = biological target: Acetylcholinesterase (Electrophorus electricus, UniProt O42275); assay: (§1) Inhibition of electric eel AChE by Ellman's method
[2] = Lipophilicity, log D of the compound; format: physicochemical; conditions: octanol/water
[3] = biological target: Acetylcholinesterase (Electrophorus electricus) (UniProt O42275); assay: as §1
Sequence of Acetylcholinesterase (Electrophorus electricus) (O42275 24-633 limits assumed): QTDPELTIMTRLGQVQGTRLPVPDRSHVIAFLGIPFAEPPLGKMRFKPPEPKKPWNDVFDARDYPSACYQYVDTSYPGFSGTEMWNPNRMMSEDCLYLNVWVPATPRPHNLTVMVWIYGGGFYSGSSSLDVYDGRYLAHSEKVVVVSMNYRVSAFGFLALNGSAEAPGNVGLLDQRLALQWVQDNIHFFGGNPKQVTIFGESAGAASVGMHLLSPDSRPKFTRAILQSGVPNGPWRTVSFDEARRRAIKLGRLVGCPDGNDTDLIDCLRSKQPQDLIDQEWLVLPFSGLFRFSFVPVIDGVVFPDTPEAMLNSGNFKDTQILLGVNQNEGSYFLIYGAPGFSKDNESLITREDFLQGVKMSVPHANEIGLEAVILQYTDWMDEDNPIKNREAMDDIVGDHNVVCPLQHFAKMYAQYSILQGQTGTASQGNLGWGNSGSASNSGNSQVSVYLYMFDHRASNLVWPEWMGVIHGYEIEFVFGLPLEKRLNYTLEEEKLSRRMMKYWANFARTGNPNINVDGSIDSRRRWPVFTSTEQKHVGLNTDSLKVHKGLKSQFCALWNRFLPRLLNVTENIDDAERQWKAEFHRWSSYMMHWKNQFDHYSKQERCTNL

Sequence of Acetylcholinesterase (O42275 whole entry): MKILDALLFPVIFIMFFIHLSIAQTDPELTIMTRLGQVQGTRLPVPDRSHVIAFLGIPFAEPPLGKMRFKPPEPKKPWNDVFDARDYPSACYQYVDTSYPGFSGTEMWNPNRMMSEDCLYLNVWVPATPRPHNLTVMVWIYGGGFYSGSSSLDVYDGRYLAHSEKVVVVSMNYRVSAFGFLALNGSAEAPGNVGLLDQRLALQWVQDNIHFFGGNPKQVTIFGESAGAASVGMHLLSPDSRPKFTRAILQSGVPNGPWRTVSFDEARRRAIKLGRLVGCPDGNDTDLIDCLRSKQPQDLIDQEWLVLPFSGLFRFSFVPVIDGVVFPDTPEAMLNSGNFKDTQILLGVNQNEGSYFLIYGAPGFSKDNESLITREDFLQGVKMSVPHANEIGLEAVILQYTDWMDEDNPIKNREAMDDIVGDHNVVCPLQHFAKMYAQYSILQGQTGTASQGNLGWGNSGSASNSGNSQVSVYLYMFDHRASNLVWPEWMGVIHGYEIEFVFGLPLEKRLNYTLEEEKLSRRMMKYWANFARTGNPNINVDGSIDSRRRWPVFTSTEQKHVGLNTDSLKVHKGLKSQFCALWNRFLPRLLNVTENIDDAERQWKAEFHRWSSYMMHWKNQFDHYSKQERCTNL

Row | SMILES | IC50 [1] [µM] | logD [2] | inhibition [3]
1 | O=C1Nc2ccccc2/C1=N/NC(=O)c1ccc(Nc2nc(-c3ccccc3)cs2)cc1 | 9.5 | 4.26 | 
2 | CCNS(=O)(=O)c1ccc(NC(=O)c2ccc(Cn3nc(C)cc3C)o2)cc1 | 1.5 | 2.01 | Dose-dependent effect
3 | COc1cc(/C=N/NC(=O)c2ccc(COc3cccc(Cl)c3)o2)cc(Br)c1O | 9.8 | 4.86 | 
4 | CC1CCc2c(sc3nc(SCC(=O)Nc4ccc(S(N)(=O)=O)cc4)n(N)c(=O)c23)C1 (configuration not stated) | 5.9 | 2.3 | Dose-dependent effect
5 | C=C(C)COc1cc(C)cc2oc(=O)c(CC(=O)NCc3ccc(S(N)(=O)=O)cc3)c(C)c12 | 12.3 | 3.4 | 
6 | C=CCn1c2ccccc2c2nnc(SCC(=O)Nc3ccc(S(N)(=O)=O)cc3)nc21 | 6.5 | 1.34 | Dose-dependent effect
7 | Cc1cccc(OCC(=O)Nc2cccc(Oc3ccc4c(c3)C(=O)NC4=O)c2)c1C | 14.9 | 3.81 | 
8 | COc1ccc(NC(=O)c2ccc(NS(=O)(=O)c3cc4c5c(cccc5c3)C(=O)N4)cc2)cc1 | > 100 | 2.95 | 
9 | O=C1Nc2cc(S(=O)(=O)Nc3ccc(Oc4ccccc4)cc3)cc3cccc1c23 | 9.9 | 3.74 | 
10 | COc1cc(/C=C/C(=O)NCCCCCNc2c3c(nc4ccccc24)CCCC3)ccc1O |  | 5.78 | 
11 | COc1cc(/C=N/NC(=O)c2ccc(COc3c(F)c(F)c(F)c(F)c3F)cc2)ccc1O | 6.7 | 5.02 | 
12 | CCOc1cc(C(=O)NNC(=S)Nc2ccc(S(N)(=O)=O)cc2)cc(OCC)c1OCC | 4.8 | 2.65 | Dose-dependent effect
13 | CCOc1cc(/C=N/NC(=O)c2cc(-c3cccc(OC)c3)n[nH]2)ccc1O | 7.8 | 3.44 | 
14 | C=CCn1c(SCCCC(=O)Nc2ccc(S(N)(=O)=O)cc2)nc2sc3c(c2c1=O)CCCC3 | 2.5 | 3.93 | Dose-dependent effect
15 | CC(=O)Nc1ccc(-c2nnc(SCC(=O)Nc3ccc(Br)cc3Cl)n2C)cc1 | 10.5 | 3.61 | 
16 | COc1cc(/C=N/NC(=O)CSc2nnc(-c3ccc(OC)c(OC)c3)n2-c2ccccc2)ccc1O | > 100 | 4.4 | 
17 | COc1cc(/C=C/C(=O)NCCCCNc2c3c(nc4ccccc24)CCCC3)ccc1O |  | 5.33 | 
